Our source for the T/C values is PubChem BioAssay AID192 (DTP/NCI, 2004).

The test system of the test is BDF1 mice, B16 melanoma ip, median survival T/C. The experiment in a line: NCI In Vivo Anticancer Drug Screen. Data for tumor model B16 Melanoma (intraperitoneal) in B6D2F1 (BDF1) mice. The following applies: endpoint: median survival time, higher = longer survival. The gist of the method: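 Survival or tumor size is measured after treatment of tumor-bearing mice and normalised to the vehicle-treated control group.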

Setting [1] is: dose: 6.25 mg/kg/injection, schedule: Q01DX009 (ip), vehicle: saline with Tween-80.
[2] abbreviates: dose: 100.0 mg/kg/injection, schedule: Q01DX009 (ip), vehicle: saline with Tween-80.
[3] abbreviates: dose: 200.0 mg/kg/injection, schedule: Q01DX009 (ip), vehicle: saline with Tween-80.
Where [4] appears, read: dose: 100.0 mg/kg/injection, schedule: Q01DX009 (ip), vehicle: Klucel (hydroxypropylcellulose) (HPC).
The mark [5] stands for this setting: dose: 25.0 mg/kg/injection, schedule: Q01DX009 (ip), vehicle: Klucel (hydroxypropylcellulose) (HPC).
[6] abbreviates: dose: 50.0 mg/kg/injection, schedule: Q01DX009 (ip), vehicle: Klucel (hydroxypropylcellulose) (HPC).
Where [7] appears, read: dose: 200.0 mg/kg/injection, schedule: Q01DX009 (ip), vehicle: Klucel (hydroxypropylcellulose) (HPC).
Setting [8] is: dose: 12.5 mg/kg/injection, schedule: Q01DX009 (ip), vehicle: Klucel (hydroxypropylcellulose) (HPC).
Setting [9] is: dose: 100.0 mg/kg/injection, schedule: Q04DX003 (ip), vehicle: saline with Tween-80.
Where [10] appears, read: dose: 150.0 mg/kg/injection, schedule: Q01DX009 (ip), vehicle: Klucel (hydroxypropylcellulose) (HPC).
[11] abbreviates: dose: 1.0 mg/kg/injection, schedule: Q01DX009 (ip), vehicle: saline.
Where [12] appears, read: dose: 2.0 mg/kg/injection, schedule: Q01DX009 (ip), vehicle: saline.
[13] abbreviates: dose: 8.0 mg/kg/injection, schedule: Q01DX009 (ip), vehicle: acid diluted with saline.
Setting [14] is: dose: 16.0 mg/kg/injection, schedule: Q01DX009 (ip), vehicle: acid diluted with saline.

Where “and” joins values, the source holds several entries; their conditions need not be identical. Equal entries are not always repeated. Toxic doses and inconclusive results are not listed.

Consider `O=S(=O)(O)O.[O]=[V]`, for which the T/C was 87 % of control (dose: 1.56 mg/kg/injection, schedule: Q01DX009 (ip), vehicle: saline with Tween-80); 97 % of control (dose: 3.13 mg/kg/injection, schedule: Q01DX009 (ip), vehicle: saline with Tween-80); 94 % of control under setting [1].

In the case of `COc1cc(C(=O)NCCS(=O)(=O)O)cc(OC)c1OC`, the T/C was 97 % of control (dose: 100.0 mg/kg/injection, schedule: Q01DX009 (ip), vehicle: saline); 111 % of control (dose: 200.0 mg/kg/injection, schedule: Q01DX009 (ip), vehicle: saline); 103 % of control (dose: 400.0 mg/kg/injection, schedule: Q01DX009 (ip), vehicle: saline).

In the case of `Cc1ccccc1NC(=O)c1cc2ccccc2cc1O`, the T/C reads like this: under setting [2], 110 % of control; under setting [3], 110 % of control; (dose: 400.0 mg/kg/injection, schedule: Q01DX009 (ip), vehicle: saline with Tween-80) 107 % of control.

`Cc1cc2nc(CO)[nH]c2cc1C`: the T/C is 111 % of control under setting [4]; 100 % of control (dose: 100.0 mg/kg/injection, schedule: Q04DX003 (ip), vehicle: Klucel (hydroxypropylcellulose) (HPC)); 94 % of control (dose: 200.0 mg/kg/injection, schedule: Q04DX003 (ip), vehicle: Klucel (hydroxypropylcellulose) (HPC)); 97 % of control (dose: 400.0 mg/kg/injection, schedule: Q04DX003 (ip), vehicle: Klucel (hydroxypropylcellulose) (HPC)).

Turning to `CCCC1(C)COB(c2ccc(C)cc2)OC1`, the T/C reads like this: under setting [5], 93 % of control; under setting [6], 90 % of control; under setting [4], 97 % of control; under setting [7], 86 % of control; (dose: 400.0 mg/kg/injection, schedule: Q01DX009 (ip), vehicle: Klucel (hydroxypropylcellulose) (HPC)) 90 % of control.

For the molecule `CCC/C(C)=C(/C#N)CC`, the T/C under setting [5] was 105 % of control, the T/C under setting [6] is 103 % of control and the T/C under setting [4] was 109 % of control.

Turning to `CCCCCCCCCCCCCCCCCCNC(=O)Nc1c(C)cc(C)cc1C`, the T/C (dose: 100.0 mg/kg/injection, schedule: Q01DX009 (ip), vehicle: gum acacia) was 88 % of control.

For `CC(=O)NC(Cc1cc(I)c(O)c(I)c1)C(=O)O` (stereo not drawn), the T/C (dose: 6.25 mg/kg/injection, schedule: Q01DX009 (ip), vehicle: Klucel (hydroxypropylcellulose) (HPC)) is 103 % of control; the T/C under setting [8] was 108 % of control; the T/C under setting [5] is 96 % of control and 101 % of control; the T/C under setting [6] is 95 % of control; the T/C under setting [4] was 98 % of control; the T/C under setting [7] is 93 % of control.

In the case of `O=C(O)C1C2CCC1C2` (stereo not drawn), the T/C (dose: 25.0 mg/kg/injection, schedule: Q04DX003 (ip), vehicle: saline with Tween-80) is 103 % of control; the T/C (dose: 50.0 mg/kg/injection, schedule: Q04DX003 (ip), vehicle: saline with Tween-80) is 102 % of control; the T/C under setting [9] is 97 % of control and 102 % of control.

Take `CC1(C)N=C(N)N=C(N)N1c1ccc(OCc2ccc(C(=O)Nc3cccc(S(=O)(=O)F)c3)cc2)c(Cl)c1`: the T/C runs as follows: (dose: 12.5 mg/kg/injection, schedule: Q04DX003 (ip), vehicle: saline with Tween-80) 119 % of control; (dose: 50.0 mg/kg/injection, schedule: Q04DX003 (ip), vehicle: saline) 166 % of control.

Turning to `S=P(NCCS)(N1CC1)N1CC1`, the T/C was 95 % of control under setting [1]; 96 % of control (dose: 12.5 mg/kg/injection, schedule: Q01DX009 (ip), vehicle: saline with Tween-80); 98 % of control (dose: 25.0 mg/kg/injection, schedule: Q01DX009 (ip), vehicle: saline with Tween-80); 105 % of control under setting [9]; 97 % of control (dose: 200.0 mg/kg/injection, schedule: Q04DX003 (ip), vehicle: saline with Tween-80); 95 % of control (dose: 400.0 mg/kg/injection, schedule: Q04DX003 (ip), vehicle: saline with Tween-80).

`O=[N+]([O-])c1cccc(N=Cc2ccccc2)c1`: the T/C reads like this: (dose: 66.0 mg/kg/injection, schedule: Q01DX009 (ip), vehicle: Klucel (hydroxypropylcellulose) (HPC)) 102 % of control; under setting [10], 122 % of control.

Turning to `O/N=C1\CCCC\C1=N/O.O/N=C1\CCCC\C1=N/O.[Pd]`, the T/C was 101 % of control (dose: 25.0 mg/kg/injection, schedule: Q04DX003 (ip), vehicle: other); 91 % of control (dose: 50.0 mg/kg/injection, schedule: Q04DX003 (ip), vehicle: other); 93 % of control (dose: 100.0 mg/kg/injection, schedule: Q04DX003 (ip), vehicle: other).

Turning to `C[C@]12CC[C@H](OC3OC(CO)C(O)C(O)C3O)C[C@H]1CC[C@@H]1[C@@H]2CC[C@]2(C)[C@@H](C3=CCOC3=O)CC[C@]12O` (stereo partly drawn), the T/C is, setting by setting: (dose: 0.5 mg/kg/injection, schedule: Q01DX009 (ip), vehicle: saline) 107 % of control; under setting [11], 92 % of control; under setting [12], 105 % of control.

Turning to `Cc1c(Cl)ccc2c(C(O)CBr)cc(-c3ccccc3)nc12` (stereo not drawn), the T/C is 91 % of control under setting [2] and 87 % of control under setting [3].

Turning to `O=C1c2ccccc2C(=O)c2c(NCCN3CCNCC3)ccc(NCCN3CCNCC3)c21`, the T/C under setting [13] was 106 % of control; the T/C under setting [14] was 104 % of control; the T/C (dose: 32.0 mg/kg/injection, schedule: Q01DX009 (ip), vehicle: acid diluted with saline) was 104 % of control; the T/C (dose: 64.0 mg/kg/injection, schedule: Q01DX009 (ip), vehicle: acid diluted with saline) is 96 % of control.

In the case of `C[C@@H]1CC[C@@]2(NC1)O[C@H]1C[C@H]3[C@@H]4CC=C5C[C@@H](O)CC[C@]5(C)[C@H]4CC[C@]3(C)[C@H]1[C@@H]2C`, the T/C under setting [8] is 95 % of control.

As for `CCCCCC(O)C1C(=O)OC(C)C(O)/C=C/C=C/C=C/C=C/C=C(\C)C(O)C(O)C(O)CC(O)CC(O)CC(O)CC(O)CC1O` (stereo not drawn), the T/C (dose: 0.78 mg/kg/injection, schedule: Q01DX009 (ip), vehicle: saline) is 124 % of control; the T/C under setting [11] was 116 % of control; the T/C (dose: 1.56 mg/kg/injection, schedule: Q01DX009 (ip), vehicle: saline) was 119 % of control; the T/C (dose: 1.78 mg/kg/injection, schedule: Q01DX009 (ip), vehicle: saline) is 122 % of control; the T/C under setting [12] was 123 % of control; the T/C (dose: 3.12 mg/kg/injection, schedule: Q01DX009 (ip), vehicle: saline) is 103 % of control. Further, the T/C (dose: 4.0 mg/kg/injection, schedule: Q01DX009 (ip), vehicle: saline) is 154 % of control.

Consider `OC(c1ccccc1)(c1c2ccccc2cc2ccccc12)C1CCC1` (stereo not drawn), for which the T/C runs as follows: (dose: 75.0 mg/kg/injection, schedule: Q01DX009 (ip), vehicle: Klucel (hydroxypropylcellulose) (HPC)) 100 % of control; under setting [10], 102 % of control; (dose: 300.0 mg/kg/injection, schedule: Q01DX009 (ip), vehicle: Klucel (hydroxypropylcellulose) (HPC)) 91 % of control.

Regarding `COc1ccc(C(=O)/C(Br)=C/C(=O)O)cc1`, the T/C was 99 % of control (dose: 2.5 mg/kg/injection, schedule: Q01DX009 (ip), vehicle: saline); 96 % of control (dose: 5.0 mg/kg/injection, schedule: Q01DX009 (ip), vehicle: saline); 95 % of control and 98 % of control (dose: 10.0 mg/kg/injection, schedule: Q01DX009 (ip), vehicle: saline); 96 % of control (dose: 20.0 mg/kg/injection, schedule: Q01DX009 (ip), vehicle: saline); 95 % of control and 100 % of control (dose: 40.0 mg/kg/injection, schedule: Q01DX009 (ip), vehicle: saline).

With `CCCCCC/C=C/[N+]([O-])=NC(COC)C(C)O` (stereo not drawn), the T/C (dose: 5.0 mg/kg/injection, schedule: Q01DX009 (ip), vehicle: Klucel (hydroxypropylcellulose) (HPC)) is 107 % of control and the T/C (dose: 10.0 mg/kg/injection, schedule: Q01DX009 (ip), vehicle: Klucel (hydroxypropylcellulose) (HPC)) was 105 % of control.

In the case of `CCNCCNc1ccc(NCCNCC)c2c1C(=O)c1ccccc1C2=O`, the T/C by setting is: under setting [13], 157 % of control; under setting [14], 158 % of control.
